Columns and labels:
Assay type in all cases: cell-based
TRPA1 [1] = target: T1, TRPA1 (Mus musculus, UniProt Q8BLA8); experiment: fura-2 Ca2+ assay and whole-cell patch clamp in STC-1 cells; blocked by A967079 and HC030031
T1 construct: endogenous channel in mouse STC-1 cells

TRPA1 [2] = target: T2, TRPA1 (Rattus norvegicus, UniProt Q6RI86, C622S); experiment: fura-2 Ca2+ assay in HEK-293 cells transfected with C622S rat TRPA1
T2 construct: mutant rat C622S TRPA1

TRPA1 [3] = target: T3, TRPA1 (Rattus norvegicus, UniProt Q6RI86); experiment: fura-2 Ca2+ assay in HEK-293 cells transfected with rat TRPA1 versus empty vector; loss of response in C622S
T3 construct: wild-type rat TRPA1 (GenBank AY496961.1), 5' fused to YFP
T3 sequence (Q6RI86 whole entry, the tested form may be a part): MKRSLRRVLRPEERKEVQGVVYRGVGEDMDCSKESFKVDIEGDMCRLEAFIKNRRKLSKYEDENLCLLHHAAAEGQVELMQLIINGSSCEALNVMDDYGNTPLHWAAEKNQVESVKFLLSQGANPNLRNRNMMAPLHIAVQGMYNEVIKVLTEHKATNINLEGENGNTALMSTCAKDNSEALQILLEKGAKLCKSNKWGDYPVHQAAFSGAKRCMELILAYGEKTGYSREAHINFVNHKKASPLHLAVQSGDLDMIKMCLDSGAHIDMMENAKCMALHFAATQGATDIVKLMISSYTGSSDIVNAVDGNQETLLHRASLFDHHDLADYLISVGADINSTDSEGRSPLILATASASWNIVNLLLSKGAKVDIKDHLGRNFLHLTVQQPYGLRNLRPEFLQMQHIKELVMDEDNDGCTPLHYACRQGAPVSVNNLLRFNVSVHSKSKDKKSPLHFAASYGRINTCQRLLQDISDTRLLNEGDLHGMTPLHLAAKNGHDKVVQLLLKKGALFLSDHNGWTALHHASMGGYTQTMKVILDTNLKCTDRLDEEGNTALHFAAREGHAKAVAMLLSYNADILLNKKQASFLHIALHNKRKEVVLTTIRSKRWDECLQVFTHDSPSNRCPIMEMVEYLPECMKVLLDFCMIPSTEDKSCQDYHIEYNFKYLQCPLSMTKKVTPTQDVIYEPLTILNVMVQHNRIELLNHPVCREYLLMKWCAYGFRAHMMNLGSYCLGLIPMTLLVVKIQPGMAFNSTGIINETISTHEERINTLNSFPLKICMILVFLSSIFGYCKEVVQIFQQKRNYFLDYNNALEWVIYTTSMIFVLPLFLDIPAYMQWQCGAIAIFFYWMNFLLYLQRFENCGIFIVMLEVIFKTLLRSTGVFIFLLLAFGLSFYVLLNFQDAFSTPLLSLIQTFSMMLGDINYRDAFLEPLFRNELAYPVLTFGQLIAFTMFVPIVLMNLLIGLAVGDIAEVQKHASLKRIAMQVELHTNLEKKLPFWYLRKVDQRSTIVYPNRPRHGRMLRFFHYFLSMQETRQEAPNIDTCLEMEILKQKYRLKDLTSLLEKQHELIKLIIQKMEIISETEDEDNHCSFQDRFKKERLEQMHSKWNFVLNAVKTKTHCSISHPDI

T1 sequence (Q8BLA8 whole entry): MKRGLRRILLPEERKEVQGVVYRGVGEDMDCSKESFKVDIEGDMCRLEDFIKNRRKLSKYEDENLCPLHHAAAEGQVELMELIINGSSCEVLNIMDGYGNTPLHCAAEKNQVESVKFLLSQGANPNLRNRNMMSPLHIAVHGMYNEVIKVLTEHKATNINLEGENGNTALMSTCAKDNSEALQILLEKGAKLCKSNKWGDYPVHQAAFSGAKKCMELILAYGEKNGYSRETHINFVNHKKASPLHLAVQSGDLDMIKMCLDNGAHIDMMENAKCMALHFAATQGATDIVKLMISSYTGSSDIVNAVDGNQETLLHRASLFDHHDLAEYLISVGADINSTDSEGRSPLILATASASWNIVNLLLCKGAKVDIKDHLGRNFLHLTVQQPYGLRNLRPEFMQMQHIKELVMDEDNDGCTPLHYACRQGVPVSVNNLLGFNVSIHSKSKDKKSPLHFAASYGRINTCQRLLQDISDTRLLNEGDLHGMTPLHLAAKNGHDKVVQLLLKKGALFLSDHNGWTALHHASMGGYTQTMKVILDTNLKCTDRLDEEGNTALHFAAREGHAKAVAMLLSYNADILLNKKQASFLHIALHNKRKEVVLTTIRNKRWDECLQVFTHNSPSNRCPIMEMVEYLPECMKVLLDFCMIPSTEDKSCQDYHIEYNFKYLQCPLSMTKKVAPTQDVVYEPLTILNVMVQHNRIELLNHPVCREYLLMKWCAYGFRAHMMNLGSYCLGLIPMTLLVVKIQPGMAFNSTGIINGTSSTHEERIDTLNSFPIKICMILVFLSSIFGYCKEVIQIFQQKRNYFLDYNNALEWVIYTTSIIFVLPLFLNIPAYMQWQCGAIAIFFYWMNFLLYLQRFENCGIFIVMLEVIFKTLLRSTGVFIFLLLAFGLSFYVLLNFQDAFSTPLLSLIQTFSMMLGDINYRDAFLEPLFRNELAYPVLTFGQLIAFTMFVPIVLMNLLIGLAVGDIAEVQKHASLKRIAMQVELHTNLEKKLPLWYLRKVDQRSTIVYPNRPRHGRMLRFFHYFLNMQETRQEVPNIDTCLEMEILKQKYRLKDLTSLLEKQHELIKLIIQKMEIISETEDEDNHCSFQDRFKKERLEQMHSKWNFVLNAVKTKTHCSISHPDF
T2 sequence (Q6RI86 whole entry C622S): as the sequence (Q6RI86 whole entry, the tested form may be a part) above, with C622S counted along it

Row | Compound | EC50 (TRPA1 [1]) [nM] | fura-2 Ca2+ assay in HEK-293 cells transfected with C622S rat TRPA1 (TRPA1 [2]) | fura-2 Ca2+ assay in HEK-293 cells transfected with rat TRPA1 versus empty vecto (TRPA1 [3])
1 | CC1(C)c2c([nH]c3ccc(Cl)cc23)C2C=CC1C2 (racemic) [JWU-A021] | ~200 | mutant C622S rat TRPA1 cDNA responded to JWU-A021 in a manner nearly identical to that of cells transfected with WT | –
2 | C=CCN=C=S [AITC, allyl isothiocyanate] | – | – | the electrophile AITC must covalently modify C622 in order to fully activate the channel

Reference: paper PMC4926213, “Synthetic small molecule GLP-1 secretagogues prepared by means of a three-component indole annulation strategy” (Scientific Reports, 2016)
